Measurements from patent publication US11155539B2, “4-pyridinylmethyl-morpholine derivatives and the use thereof as medicament” (Boehringer Ingelheim International GmbH, priority 2018, dated 2021).

Columns and labels:
[1] = target: Nav1.6 (Homo sapiens, UniProt Q9UQD0); test: Nav 1.6 inhibition, IonWorks Quattro electrophysiology; assay type: cell-based; conditions: for inhibition at 1 µM / inhibition at 5 µM: normalized to vehicle control (0%) and maximal inhibition control (100%)
Protocol: Determination of Nav 1.6.Inhibition
IonWorks Quattro electrophysiological platform
The compounds were prepared in DMSO at 300× the final assay concentrations of 1 and 5 μM.
The 300×DMSO stock solutions were transferred into assay plates where 2 μl per well of each 300× stock solution were placed. All assay plates were stored at −80° C. until the day of assay.
On the day of the assay, the appropriate assay plate was thawed at room temperature, centrifuged, and 198 μl of external recording solution was added and mixed thoroughly. This provided a 1:100 dilution. A further 1:3 dilution occurred upon addition to the cells in the IonWorks Quattro electrophysiological platform, giving a 1:300 dilution in total. On each assay plate, at least 8 wells were reserved for vehicle control (0.3% DMSO) and at least 8 wells for each positive control specific to the cell line tested. The positive controls were tested at a maximal blocking and an approximate IC50 concentration. As positive control Lidocaine at concentrations of 30 and 1000 μM was used.
The solutions for recording Nav1.6 currents were as follows:
Amphotericin B was used to obtain electrical access to the cell interior at a final concentration of 200 μg/ml in internal recording solution.
State-dependent inhibition: Sodium channels when held at depolarized potential or long test pulse, the channels open and inactivate and then stay inactivated until the membrane potential is stepped back to hyperpolarized potentials, when the inactivated channels recover from inactivation into closed state.
Cells were held at −120 mV. In order to completely inactivate the sodium channels (pulse 1), the cells were pulsed to +0 mV for 2500 ms and stepped back to −120 mV for 10 ms (to completely recover from inactivation, however channels that had drugs bound to them will not recover from inactivation) before stepping to +0 mV for 20 ms (pulse 2).
Both the positive and vehicle control data associated with each cell line assayed are shown below as an example. The mean is shown for each positive and negative control as solid symbol with the total number of individual well replicates given next to the solid symbol. In addition, the individual data of each well are shown on the graph as open symbols so that the variation about the mean value can be readily assessed.
Shown below are the assay controls for the Nav1.6 IonWorks Quattro assay.
Tables 3 and 4 show the normalized percentage inhibition of Nav1.6 channel. […] (see also the figure Assay Control Results above).

[2] = target: T1, MDR1 (P-gp) (Homo sapiens, UniProt P08183); test: MDCK assay P-gp (permeability across MDCK-MDR1 monolayers); assay type: in vitro ADME; conditions: for Papp A→B at 2 h: apical-to-basal, MDCK-MDR1 monolayers, pH 7.4; for efflux ratio at 2 h: pH 7.4, Papp (b-a) divided by Papp (a-b), MDCK-MDR1, read-out: efflux ratio PEBA/PEAB
T1 construct: expressed in transfected cells; host or cells: MDCKII (Madin-Darby canine kidney)
Protocol: The MDCK assays provide information on the potential of a compound to pass the blood brain barrier. Permeability measurements across polarized, confluent MDCK-MDR1 cell monolayers grown on permeable filter supports are used as an in vitro absorption model: apparent permeability coefficients (PE) of the compounds across the MDCK-MDR1 cell monolayers are measured (pH 7.4, 37° C.) in apical-to-basal (AB) and basal-to-apical (BA) transport direction. The AB permeability (PEAB) represents drug absorption from the blood into the brain and the BA permeability (PEBA) drug efflux from the brain back into the blood via both, passive permeability as well as active transport mechanisms mediated by efflux and uptake transporters that are expressed on the MDCK-MDR1 cells, predominantly by the overexpressed human MDR1. Identical or similar permeabilities in both transport directions indicate passive permeation (PEBA/PEAB≤1), vectorial permeability points to additional active transport mechanisms. Higher PEBA than PEAB (PEBA/PEAB>5) indicates the involvement of active efflux mediated by MDR1, which might compromise the goal to achieve sufficient brain exposure. Therefore, this assay provides valuable support for selection of compounds applicable for further in vivo testing. High permeability not limited by efflux at the blood brain barrier is a favorable characteristic for compounds that are to be used for drugs acting primarily in the CNS.
Apparent permeability coefficients (Papp) of the compounds across the MDCK-MDR1 monolayers (MDCKII cells transfected with human MDR1 cDNA expression plasmid) are measured in apical-to-basal (AB) and basal-to-apical (BA) direction. MDCK-MDR1 cells (6×10^5 cells/cm^2) are seeded on filter inserts (Corning, Transwell, polycarbonate, 0.4 μm pore size) and cultured for 9 to 10 days. Compounds dissolved in DMSO stock solution (1-20 mM) are diluted with HTP-4 aqueous buffer (128.13 mM NaCl, 5.36 mM KCl, 1 mM MgSO4, 1.8 mM CaCl2, 4.17 mM NaHCO3, 1.19 mM Na2HPO4, 0.41 mM NaH2PO4, 15 mM HEPES, 20 mM glucose, pH 7.4) supplemented with 0.25% BSA to prepare the transport solutions (final concentration: 1 or 10 μM, final DMSO<=0.5%). The transport solution is applied to the apical or basolateral donor side for measuring A-B or B-A permeability, respectively. The receiver side contains HTP-4 buffer supplemented with 0.25% BSA. Samples are collected at the start and end of experiment from the donor and at various time intervals for up to 2 hours also from the receiver side for concentration measurement by HPLC-MS/MS (RapidFire High-throughput MS System (Agilent) coupled to QTrap 6500 (AB Sciex) or TSQ Vantage (Thermo Scientific)). Sampled receiver volumes are replaced with fresh receiver solution. Efflux ratio is calculated dividing the Papp (b-a) values by the Papp (a-b) values.

[3] = Metabolic stability in pooled human liver microsomes; assay type: in vitro ADME; conditions: pH 7.6, 1 μM compound, 37° C., NADPH, read-out: Half-life - t½ human liver microsomes
From the text: Stability in human liver microsomes refers to the susceptibility of compounds to biotransformation in the context of selecting and/or designing drugs with favorable pharmacokinetic properties. The primary site of metabolism for many drugs is the liver. Human liver microsomes contain the cytochrome P450s (CYPs), and thus represent a model system for studying drug metabolism in vitro Enhanced stability in human liver microsomes is associated with several advantages, including increased bioavailability and adequate half-life, which can enable lower and less frequent dosing of patients. Thus, enhanced stability in human liver microsomes is a favorable characteristic for compounds that are to be used for drugs.
The metabolic degradation of the test compound was assayed at 37° C. with pooled human liver microsomes. The final incubation volume of 60 μl per time point contains TRIS buffer pH 7.6 at room temperature (0.1 M), magnesium chloride (5 mM aqueous solution), microsomal protein (1 mg/mL for human) and the test compound at a final concentration of 1 μM. Following a short preincubation period at 37° C., the reactions were initiated by addition of betanicotinamide adenine dinucleotide phosphate, reduced form (NADPH, 1 mM), and terminated by transferring an aliquot into acetonitril after different time points. After centrifugation (10000 g, 5 min), an aliquot of the supernatant was assayed by HPLC-MS/MS as described above for the MDCK assay P-gp for the amount of parent compound. The half-life was determined by the slope of the semi-logarithmic plot of the concentration-time profile.

[4] = target: T2, NMDA NR1/NR2B receptor (Homo sapiens, UniProt Q05586+Q13224); test: In vitro NMDA NR1/NR2B cell assay (FLIPR, intracellular calcium induced by glycine/glutamate); assay type: cell-based; conditions: HEK293 cells expressing NMDA NR1/NR2B; 20 μM glycine, 1 μM glutamate; read-out: IC50 (in vitro NR2B affinity, FLIPR assay)
T2 construct: host or cells: HEK293, tetracycline-inducible expression
Protocol: (§1) A human HEK293 cell line with tetracyclin-inducible expression of NMDA NR1/NR2B receptor was used as a test system for compound efficacy and potency. The cell line was purchased from ChanTest, Catalog #CT6121. Compound activity was determined by measuring the effect of compounds on intracellular calcium concentration induced by glycine/glutamate agonism in a FLIPRtetra system (Molecular Devices).
(§2) The cells were obtained as frozen cells in cryo-vials and stored until use at −150° C. Cells were grown in culture medium (DMEM/F12, 10% FBS, 5 μg/mL Blasticidin, 150 μg/mL Zeozin, 500 μg/mL Geneticin). […] For sub-culturing the cells were detached from flasks by Versene. For the assay, cells were detached, washed twice with induction medium (DMEM/F12 without glutamine, 10% FBS, 2 μg/mL Tetracycline, 2 mM Ketamine) and seeded to 384 well pure coat amine plates (Becton Dickinson, 50000 cells per well in 50 μl) 48 h prior to assay in induction medium.
(§3) The test compounds were dissolved in 100% DMSO at a concentration of 10 mM and in a first step diluted in DMSO to a concentration of 5 mM, followed by serial dilution steps in 100% DMSO. Dilution factor and number of dilution steps may vary according to needs. Typically 8 different concentrations by 1:5 dilutions were prepared in duplicate, further intermediate dilutions (1:37.5) of the substances were carried out with aqueous assay buffer (137 mM NaCl, 4 mM KCl, 1.8 mM CaCl2, 10 mM HEPES, 10 mM Glucose, pH 7.4) resulting in a compound concentration 3 times above the final test concentration and DMSO at 2.7% resulting in 0.9% final DMSO concentration in the assay.
(§4) At the assay day cells were washed 3× with assay buffer (as described above), 10 μL buffer remained in the wells after washing. 10 μL Ca kit loading buffer (AAT Bioquest; prepared from the kit containing the following components: Component A: Fluo-8 NW dissolved in 200 μL DMSO and 20 μl of this solution are mixed with 10 ml buffer prepared out of component B and C, Component B: 10× Pluronic® F127 Plus diluted 1:10 in component C, Component C: HHBS (Hanks with 20 mM Hepes) was added to the cells and the plates were incubated with lid for 60 minutes at room temperature. 20 μl assay buffer containing 60 μM glycine (20 μM final) and 3 μM glutamate (1 μM final) was added to column 1-23, column 24 got assay buffer without glycine/glutamate to serve as negative unstimulated control. Fluorescence (indicating the calcium influx as a result of the NR1/NR2B ion channel activation) was read on the FLIPRtetra device for 60 seconds to monitor the glutamate induced effects. After 2 minutes 20 μL of compound dilution prepared as described above or controls (row 1-22) in assay buffer were carefully added to the wells. […] The average of 2 measurements at 5 minutes and […] 10 seconds after compound addition is calculated and further used for IC50 calculations. Each assay microtiter compound dilution plate contained wells (in column 23 or 24) with DMSO controls instead of compound as controls for glycine/glutamate induced fluorescence (high controls) and wells with 1 μM of a reference NR2B NAM as low controls (Compound 22; reference: Layton, Mark E et al, ACS Chemical Neuroscience 2011, 2(7), 352-362).
(§5) The output file of the reader contains the well number and measured average fluorescence units. For data evaluation and calculation, the measurement of the low control was set as 0% control and the measurement of the high control was set as 100% control. The IC50 values were calculated using the standard 4 parameter logistic regression formula. Calculation: [y=(a−d)/(1+(x/c)^b)+d], a=low value, d=high value; x=conc M; c=IC50 M; b=slope.

[5] = target: T3, NMDA NR1/NR2B receptor (Homo sapiens, UniProt Q13224); test: as above; assay type: cell-based; conditions: see Table 2
T3 construct: host or cells: HEK293, tetracycline-inducible expression
Protocol: as §1, §2, §3, §4, §5

T2 sequence (Q13224 27-1484, other chains not shown): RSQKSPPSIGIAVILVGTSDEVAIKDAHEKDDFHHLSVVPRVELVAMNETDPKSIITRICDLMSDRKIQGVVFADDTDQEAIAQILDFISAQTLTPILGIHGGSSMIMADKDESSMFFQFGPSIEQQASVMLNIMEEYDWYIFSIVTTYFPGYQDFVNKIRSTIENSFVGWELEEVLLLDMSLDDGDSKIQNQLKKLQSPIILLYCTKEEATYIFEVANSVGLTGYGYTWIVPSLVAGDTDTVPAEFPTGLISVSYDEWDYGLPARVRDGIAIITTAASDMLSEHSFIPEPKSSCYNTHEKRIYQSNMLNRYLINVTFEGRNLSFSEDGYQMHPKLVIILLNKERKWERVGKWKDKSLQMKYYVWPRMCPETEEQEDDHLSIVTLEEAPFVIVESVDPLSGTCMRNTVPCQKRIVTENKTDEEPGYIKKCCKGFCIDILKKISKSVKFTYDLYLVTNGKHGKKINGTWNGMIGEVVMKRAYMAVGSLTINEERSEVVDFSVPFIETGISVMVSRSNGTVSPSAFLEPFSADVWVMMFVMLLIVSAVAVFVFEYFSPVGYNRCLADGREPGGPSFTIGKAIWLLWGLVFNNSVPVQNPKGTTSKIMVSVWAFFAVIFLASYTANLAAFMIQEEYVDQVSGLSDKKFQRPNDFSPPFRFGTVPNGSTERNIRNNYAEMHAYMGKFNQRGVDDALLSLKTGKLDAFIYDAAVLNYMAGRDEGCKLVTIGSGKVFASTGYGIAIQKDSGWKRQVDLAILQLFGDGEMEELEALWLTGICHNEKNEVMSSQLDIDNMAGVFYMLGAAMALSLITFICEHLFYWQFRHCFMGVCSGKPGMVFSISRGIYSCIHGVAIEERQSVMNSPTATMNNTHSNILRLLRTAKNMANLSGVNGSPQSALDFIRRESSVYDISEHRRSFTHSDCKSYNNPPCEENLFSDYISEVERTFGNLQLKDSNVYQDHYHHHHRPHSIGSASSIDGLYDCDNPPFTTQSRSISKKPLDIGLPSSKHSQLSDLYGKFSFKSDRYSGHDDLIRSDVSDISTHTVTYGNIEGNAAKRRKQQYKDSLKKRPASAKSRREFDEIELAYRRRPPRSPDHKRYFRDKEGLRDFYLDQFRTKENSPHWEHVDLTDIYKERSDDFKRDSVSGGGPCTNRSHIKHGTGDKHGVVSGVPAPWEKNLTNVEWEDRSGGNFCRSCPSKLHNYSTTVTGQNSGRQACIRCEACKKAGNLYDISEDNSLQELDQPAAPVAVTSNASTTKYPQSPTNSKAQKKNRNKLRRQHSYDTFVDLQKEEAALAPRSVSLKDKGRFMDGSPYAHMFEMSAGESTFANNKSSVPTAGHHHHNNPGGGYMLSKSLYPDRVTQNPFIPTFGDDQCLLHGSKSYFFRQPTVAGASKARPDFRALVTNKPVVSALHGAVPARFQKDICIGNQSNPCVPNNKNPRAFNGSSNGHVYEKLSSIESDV
T3 sequence (Q13224 27-1484, other chains not shown): as above
Nav1.6, sequence (Q9UQD0 whole entry): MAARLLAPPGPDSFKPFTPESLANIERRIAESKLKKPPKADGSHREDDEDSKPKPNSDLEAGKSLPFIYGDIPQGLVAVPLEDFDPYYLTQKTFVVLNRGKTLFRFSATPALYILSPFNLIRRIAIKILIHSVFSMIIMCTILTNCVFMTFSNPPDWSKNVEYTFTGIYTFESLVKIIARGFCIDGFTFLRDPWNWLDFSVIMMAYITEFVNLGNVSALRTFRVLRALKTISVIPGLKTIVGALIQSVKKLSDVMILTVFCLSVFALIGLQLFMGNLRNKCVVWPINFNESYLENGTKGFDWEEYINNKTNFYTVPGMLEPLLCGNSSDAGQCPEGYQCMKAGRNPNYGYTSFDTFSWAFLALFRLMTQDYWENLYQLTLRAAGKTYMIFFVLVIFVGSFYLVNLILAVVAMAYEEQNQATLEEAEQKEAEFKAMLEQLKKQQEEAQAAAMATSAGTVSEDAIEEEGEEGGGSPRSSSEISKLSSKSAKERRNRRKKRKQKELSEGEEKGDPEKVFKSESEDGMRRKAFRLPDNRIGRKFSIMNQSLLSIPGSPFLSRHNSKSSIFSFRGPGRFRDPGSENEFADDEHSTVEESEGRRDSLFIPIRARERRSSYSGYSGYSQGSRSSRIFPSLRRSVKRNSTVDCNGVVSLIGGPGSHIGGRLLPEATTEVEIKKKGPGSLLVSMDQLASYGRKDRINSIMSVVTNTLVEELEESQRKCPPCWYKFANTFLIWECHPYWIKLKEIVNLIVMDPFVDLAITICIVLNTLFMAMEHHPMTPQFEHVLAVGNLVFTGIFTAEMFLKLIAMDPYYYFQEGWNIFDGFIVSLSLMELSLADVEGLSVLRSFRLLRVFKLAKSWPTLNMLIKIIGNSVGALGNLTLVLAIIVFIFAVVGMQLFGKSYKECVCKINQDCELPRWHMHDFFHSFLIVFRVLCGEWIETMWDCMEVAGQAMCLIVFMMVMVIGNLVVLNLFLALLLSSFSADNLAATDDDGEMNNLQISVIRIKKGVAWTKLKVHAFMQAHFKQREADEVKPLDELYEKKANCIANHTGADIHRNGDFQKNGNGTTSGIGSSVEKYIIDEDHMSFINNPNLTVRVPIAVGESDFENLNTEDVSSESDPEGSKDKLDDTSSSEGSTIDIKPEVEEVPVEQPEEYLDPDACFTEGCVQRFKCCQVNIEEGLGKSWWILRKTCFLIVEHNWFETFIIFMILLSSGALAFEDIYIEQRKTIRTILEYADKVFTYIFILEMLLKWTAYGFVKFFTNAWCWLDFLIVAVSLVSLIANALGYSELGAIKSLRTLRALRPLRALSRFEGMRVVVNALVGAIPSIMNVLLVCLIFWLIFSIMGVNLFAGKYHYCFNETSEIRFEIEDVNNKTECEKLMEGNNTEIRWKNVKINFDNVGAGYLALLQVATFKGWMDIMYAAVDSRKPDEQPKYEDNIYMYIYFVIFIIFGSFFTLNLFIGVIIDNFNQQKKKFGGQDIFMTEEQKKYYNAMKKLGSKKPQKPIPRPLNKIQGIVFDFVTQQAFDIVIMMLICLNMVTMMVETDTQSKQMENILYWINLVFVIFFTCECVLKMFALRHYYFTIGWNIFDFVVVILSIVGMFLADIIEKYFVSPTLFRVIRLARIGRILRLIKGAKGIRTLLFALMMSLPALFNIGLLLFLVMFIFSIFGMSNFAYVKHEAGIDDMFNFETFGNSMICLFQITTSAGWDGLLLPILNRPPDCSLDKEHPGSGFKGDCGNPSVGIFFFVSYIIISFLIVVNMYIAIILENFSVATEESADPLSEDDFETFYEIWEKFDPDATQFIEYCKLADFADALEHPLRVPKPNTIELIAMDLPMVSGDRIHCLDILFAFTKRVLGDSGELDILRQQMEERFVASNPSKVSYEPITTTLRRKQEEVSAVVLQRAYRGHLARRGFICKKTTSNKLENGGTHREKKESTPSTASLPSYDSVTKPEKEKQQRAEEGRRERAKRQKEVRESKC

inhibition at 1 µM [1] | inhibition at 5 µM [1] | Papp A→B at 2 h [2] | efflux ratio at 2 h [2] | half-life at 1 μM [3] | IC50 [4] | Structure (SMILES) | activity on the NR1-NR2B ion channel (in words) [5] | significant inhibition of the Nav 1.6 channel (in words) ([1]; at 1 and 5 μM)
0.7% | 0.4% | 92 ×10⁻⁶ cm/s | 0.4 | > 2.17 h |  | CNC(=O)C1CN(Cc2ccc(Oc3ccc(F)cc3)nc2)CCO1 (centres unmarked) [Example 14] |  | 
-17.4% | -1.4% | 42 ×10⁻⁶ cm/s | 0.7 | > 2.17 h |  | CNC(=O)C1CN(Cc2ccc(Oc3ccc(Cl)cc3F)nc2)CCO1 (centres unmarked) [Example 15] |  | 
-0.5% | 7.1% | 51 ×10⁻⁶ cm/s | 0.7 | > 2.17 h |  | CNC(=O)C1CN(Cc2ccc(Oc3ccc(Cl)cc3)nc2)CCO1 (centres unmarked) [Example 16] |  | 
 |  | 63 ×10⁻⁶ cm/s | 0.7 | > 2.17 h | 275 nM | CNC(=O)[C@@H]1CN(Cc2ccc(Oc3ccc(F)cc3F)cn2)CCO1 [Example 31] |  | 
 |  | 80 ×10⁻⁶ cm/s | 0.5 | > 2.17 h | 255 nM | CNC(=O)[C@@H]1CN(Cc2ccc(Oc3ccc(Cl)cc3F)cn2)CCO1 [Example 32] |  | 
 |  | 71 ×10⁻⁶ cm/s | 0.5 | > 2.17 h | 366 nM | CNC(=O)[C@@H]1CN(Cc2ccc(Oc3ccccc3F)cn2)CCO1 [Example 33] |  | 
 |  | 58 ×10⁻⁶ cm/s | 0.8 | > 2.17 h | 133 nM | CNC(=O)[C@@H]1CN(Cc2ccc(Oc3ccc(C)cc3F)cn2)CCO1 [Example 34] |  | 
 |  |  |  |  |  | CCNC(=O)C1CN(Cc2cccc(Oc3ccccc3)c2)CCO1 (centres unmarked) [Example 100 of WO2015/130905, reference compound] | do not show any activity | 
 |  |  |  |  |  | O=C(NCc1ccccn1)C1CN(Cc2cccc(Oc3ccccc3)c2)CCO1 (centres unmarked) [Example 105 of WO2015/130905, reference compound] | do not show any activity | 

Structure (SMILES) | inhibition at 1 µM [1] | inhibition at 5 µM [1] | Papp A→B at 2 h [2] | efflux ratio at 2 h [2] | half-life at 1 μM [3] | IC50 [4] | activity on the NR1-NR2B ion channel (in words) [5] | significant inhibition of the Nav 1.6 channel (in words) ([1]; at 1 and 5 μM)
COCCNC(=O)C1CN(Cc2cccc(Oc3ccccc3)c2)CCO1 (centres unmarked) [Example 107 of WO2015/130905, reference compound] | -8.5% | 13.1% |  |  |  | > 9260 nM | do not show any activity | do not show any significant inhibition
